Results from patent US20080096969A1, “N alpha-(Menthanecarbonyl)amino acid amides and use thereof as physiological cooling active ingredients” (SYMRISE GMBH & CO. KG, priority 2006, published 2008).

Experiments:
[1] = Organoleptic test of cooling action in confectioner's fondant by a panel of experts; assay type: in vivo; conditions: 0.05 wt. % relative to the overall preparation, scale from 1 (no cooling action) to 9 (extremely strong cooling action)
Method: The compounds were tested for their organoleptic properties, in particular their cooling action. To this end, they were dissolved, in each case in a specific final concentration, in a mass prepared from sucrose (saccharose) and water (confectioner's fondant, supplier Nordzucker A G, Nordstemmen) and evaluated by a panel of experts. Sensory impressions were rated and the cooling action was assessed on a scale from 1 (no cooling action) to 9 (extremely strong cooling action).

[2] = study of approx. 1200 compounds; cited from earlier work
[3] = forms the free acid N-(L-menthanecarbonyl)glycine; cited from earlier work

Compound	cooling action [1]	cooling action (literature) [2]	susceptibility to hydrolysis [3]
CC(C)CNC(=O)CNC(=O)[C@@H]1C[C@H](C)CC[C@H]1C(C)C [Example 1, L-N^α-(menthanecarboxyl)glycine-N-isobutylamide]	5		
CCOC(=O)CNC(=O)C1CC(C)CCC1C(C)C [WS5, N^α-(L-menthanecarbonyl)glycine ethyl ester]		most strongly cooling active ingredients	susceptible to hydrolysis
CCNC(=O)C1CC(C)CCC1C(C)C [WS3, L-menthane carboxylic acid N-ethylamide]		most strongly cooling active ingredients	
CC1CCC(C(C)C)C(C(=O)NCC(=O)O)C1 [N-(L-menthanecarbonyl)glycine]		very weak cooling action	
